One assay concerns the target WDR5 (Homo sapiens, UniProt P61964). Kind of assay: TR-FRET competition binding assay, displacement of 10mer-Thr-FAM MLL peptide probe from His-tagged WDR5. To be noted: WDR5-His tag (residues 24-334) 2 nM; 10mer-Thr-FAM 150 nM; 60 min, room temperature; read-out: Ki for Inhibition of WDR5 by TR-FRET assay.
Assay [1] relates to MV4:11 human cancer cell lines. Description: Cellular viability / anti-proliferative assay, CellTiter-Glo, 5 day protocol. The assay is classed as cell-based. The note with it: Homo sapiens, MV4-11, 120 h, MV4:11 cells; 5 day incubation; CellTiter-Glo; mean of at least two replicates; read-out: GI50 on cellular proliferation of MV4:11 human cancer cell lines. The method in brief:
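MV-4-11 cells in IMDM with 10% FBS, 200 cells/well, exposed 5 days to 22 two-fold dilutions from 30 μM, final DMSO 0.3%. Viability read by CellTiter-Glo luminescence; GI50 from sigmoidal dose-response fit, mean of at least two replicates.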
A general note: In ATP-based viability assays light output follows the ATP content of the culture.

In general, Ki refers to a dissociation constant, usually derived from enzyme kinetics or from competition with a known ligand. For `CCc1cc(-c2cnn(C)c2)c2nccc(N3CCc4c(cc(Cn5ccnc5)cc4-c4cn(C)nc4C(F)(F)F)C3=O)c2c1` [Example 232, 7-((1H-Imidazol-1-yl)methyl)-2-(6-ethyl-8-(1-methyl-1H-pyrazol-4-yl)quinolin-4-yl)-5-(1-methyl-3-(trifluoromethyl)-1H-pyrazol-4-yl)-3,4-dihydroisoquinolin-1(2H)-one], at WDR5, the Ki is under 0.02 nM. In addition, the GI50 in assay [1] amounted to 38 nM.

With `CCc1cc(C(=O)NCC2CN(C(=O)C3CCOCC3)C2)c2nccc(N3CCc4c(cc(Cn5ccnc5)cc4-c4cn(C)nc4C(F)(F)F)C3=O)c2c1` [Example 233, 4-(7-((1H-Imidazol-1-yl)methyl)-5-(1-methyl-3-(trifluoromethyl)-1H-pyrazol-4-yl)-1-oxo-3,4-dihydroisoquinolin-2(1H)-yl)-6-ethyl-N-((1-(tetrahydro-2H-pyran-4-carbonyl)azetidin-3-yl)methyl)quinoline-8-carboxamide], the Ki on WDR5 was under 0.02 nM. Also, the GI50 in assay [1] stood at 26 nM.

With `CNC(=O)c1cc(N2CCc3c(cc(Cn4ccnc4)cc3-c3cn(C)nc3C(F)(F)F)C2=O)c2cc(OC)ccc2n1` [Example 237, 4-(7-((1H-Imidazol-1-yl)methyl)-5-(1-methyl-3-(trifluoromethyl)-1H-pyrazol-4-yl)-1-oxo-3,4-dihydroisoquinolin-2(1H)-yl)-6-methoxy-N-methylquinoline-2-carboxamide], the inhibitory constant (Ki) on WDR5 is under 0.02 nM. The GI50 in assay [1] was found to be 51 nM.

With `CCc1cc(CN(C)C(C)=O)c2nccc(N3CCc4c(cc(Cn5ccnc5)cc4-c4cn(C)nc4C(F)(F)F)C3=O)c2c1` [Example 238], the Ki on WDR5 is under 0.02 nM. In addition, in assay [1], the GI50 is 30 nM.

For the molecule `CCc1cc(CNC(C)=O)c2nccc(N3CCc4c(cc(Cn5ccnc5)cc4-c4cn(C)nc4C(F)(F)F)C3=O)c2c1` [Example 240, N-((4-(7-((1H-Imidazol-yl)methyl)-5-(1-methyl-3-(trifluoromethyl)-1H-pyrazol-4-yl)-1-oxo-3,4-dihydroisoquinolin-2(1H)-yl)-6-ethylquinolin-8-yl)methyl)acetamide], the Ki at WDR5 is under 0.02 nM. In assay [1], the GI50 was 23 nM.

Consider `COc1cc(C(=O)NC2CN(C(=O)c3ccncc3)C2)c2nccc(N3CCc4c(cc(Cn5ccnc5)cc4-c4cn(C)nc4C(F)(F)F)C3=O)c2c1` [Example 242, 4-(7-((1H-Imidazol-1-yl)methyl)-5-(1-methyl-3-(trifluoromethyl)-1H-pyrazol-4-yl)-1-oxo-3,4-dihydroisoquinolin-2(1H)-yl)-N-(1-isonicotinoylazetidin-3-yl)-6-methoxyquinoline-8-carboxamide], for which the Ki on WDR5 is under 0.02 nM. For the same molecule, in assay [1], the GI50 is 29 nM.

For the origin of these results see patent publication US12692249B2, “WDR5 inhibitors and modulators” (Vanderbilt University, priority 2019, dated 2026).
